Laboratory results from patent US4435591A, “Compound with analgesic, antiinflammatory and antipyretic activity, and pharmaceutical compositions therefrom” (Ausonia Farmaceutici s.r.l., priority 1982, dated 1984).

Key:
[1] = tested on: Writhing caused by phenylquinone in mice; assay: Writhing caused by phenylquinone in mice (Siegmung et al); format: in vivo
Description: The analgesic activity of AFP 802 has been studied by means of the writhing test with phenylquinone in mice and by means of the test of Randall and Selitto in rats.

[2] = tested on: Edema caused by kaolin in rats; assay: Edema caused by kaolin in rats (Coulon et al); conditions: oral every 24 hours, 5 consecutive days, dose AFP 802 115, ibuprofen 60
[3] = tested on: Test of Randall and Selitto, in rats; assay: Test of Randall and Selitto in rats; format: in vivo; conditions: 100 mg/Kg oral
Description: The analgesic activity of AFP 802 has been studied by means of the writhing test with phenylquinone in mice and by means of the test of Randall and Selitto in rats. Test of Randall and Selitto in rats. This test was carried out according to the method of L. Randall and J. Selitto reported in Arch. Int. Pharmacodyn., 1957 III, 409. […] The variations of pressure tolerated without variation in pain have been determined each hour, for 5 consecutive hours and the results are reported in Table 10.

[4] = tested on: Arthritis caused by the adjuvant of Freund in rats; assay: Arthritis caused by the adjuvant in rats (Winter and Nuss); format: in vivo; conditions: 100 mg/Kg/die oral
Description: For the evaluation for the efficiency of the substance the following parameters have been considered: diameter of articulations, volume of the hind paws, hematological and hematochemical examination, weight of the suprarenal glands and thymus.

[5] = tested on: Pleuritis caused by carrageenan in rats; assay: Pleuritis caused by carrageenan in rats (Vinegar et al); format: in vivo; conditions: for Number of leucocytes × 1,000 / Number of leucocytes, % inhibition with respect to the controls: 100 mg/Kg oral
[6] = tested on: subplantar edema caused by carrageenan in rats; assay: Edema caused by carrageenan in rats (Winter et al); format: in vivo; conditions: oral, AFP 802 187 mg/Kg, ibuprofen 100 mg/Kg
Description: The anti-inflammatory activity has been investigated by a series of tests using edema caused by carrageenan and kaolin pleuritis caused by carrageenan and arthritis caused by an adjuvant.
The plyethysmographic observations of the edema have been carried out every hour for a period of 7 hours after the induction of the edema.

[7] = tested on: Hyperthermia caused by yeast; assay: Antipyretic activity, hyperthermia caused by yeast in rats (Boissier and Simon); format: in vivo
Description: The experiment has been carried out in rats in which the body temperature has been increased by means of yeast by the method according to J. R. Boissier and P. Simon (Therapie, 1962, 17, 1225). […] It is, however, necessary to keep in mind the difference in molecular weight between the two substances under examination.

## CC(C)Cc1ccc(C(C)C(=O)O)cc1 (centres unmarked) [Ibuprofen, ibuprofen, reference compound]
[1]; 100 mg/Kg oral
  % inhibition with respect to the control: 78.6%
  No. of Contorsions: 4.5
[1]; 200 mg/Kg oral
  % inhibition with respect to the control: 86.7%
  No. of Contorsions: 2.8
[2]; area
  % inhibition with respect to the controls: 38.24%
[2]
  Area (area under the curve of the increase of the diameter of the articulations): 10799.5 mm^2
[3]; area, inflamed paw
  % INHIBITION WITH RESPECT TO THE CONTROL, I: 45.41%
[3]; area, not inflamed paw
  % INHIBITION WITH RESPECT TO THE CONTROL, NI: 65.35%
[3]; inflamed paw, area of the increase of the pressure tolerated
  AREA ABSOLUTE VALUE, I: -58.6 ± 25.25
[3]; not inflamed paw, area of the increase of the pressure tolerated
  AREA ABSOLUTE VALUE, NI: -39.95 ± 33.48
[4]
  ALBUMIN (%): 68.0 ± 2.0%
  GLOBULIN (%) α1: 8.8 ± 1.07%
  GLOBULIN (%) α2: 5.5 ± 0.34%
  GLOBULIN (%) β1: 13.9 ± 0.45%
  GLOBULIN (%) β2: 5.9 ± 0.43%
  GLOBULIN (%) γ: 1.9 ± 0.13%
  Hematocrit: 45.4 ± 1.04
  Leucocytes: 7,946 ± 380.5 × mm^3
  Red Cells: 5,265.300 ± 1.003 × mm^3
  VES: 1.7 ± 0.9
[4]; both paws, area under the curve of the increases
  Σ Diameter D + S, Area: 2,616.2
[4]; both paws
  Σ Diameter D + S, % inhibition: 70.92%
[4]; weight
  Suprarenal: 65.6 ± 3.4 mg
  Thymus: 375.0 ± 24.3 mg
[5]; 5 hours
  Number of leucocytes × 1,000: 4,499 × 1,000
  Number of leucocytes, % inhibition with respect to the controls: 73.60%
[5]; 24 hours after the administration
  effect in pleuritis (in words): practically inactive
[5]; 24 hours
  Number of leucocytes × 1,000: 18,470 × 1,000
  Number of leucocytes, % inhibition with respect to the controls: 0.92%
[6]; area
  % inhibition vs control: 65.0%
[6]
  Area Absolute Value: 102.8
[7]; 100 mg/Kg oral
  % inhibition with respect to control: 121.24%
[7]; 1 hour after treatment, 100 mg/Kg oral
  Rectal temperature: 37.71 °C
[7]; 2 hours after treatment, 100 mg/Kg oral
  Rectal temperature: 37.43 °C
[7]; 3 hours after treatment, 100 mg/Kg oral
  Rectal temperature: 37.36 °C
[7]; 4 hours after treatment, 100 mg/Kg oral
  Rectal temperature: 36.87 °C
[7]; 5 hours after treatment, 100 mg/Kg oral
  Rectal temperature: 37.12 °C
[7]; Basal, 100 mg/Kg oral group
  Rectal temperature: 38.34 °C
